US7811604B1, “Non-effervescent, orally disintegrating solid pharmaceutical dosage forms comprising clozapine and methods of making and using the same” (Barr Laboratories, Inc., priority 2005, dated 2010)
Where a SMILES comes first, the peptide text is derived from it.

Experiments:
[1] = Compaction index of excipients; assay type: physicochemical; details: force to fracture a solid mass prepared by compaction of 500 mg of powder under 1000 lbs pressure, 16/32″ die, flat face punches
Description: In some embodiments, the concentration of the non-polymeric water-soluble carrier, disintegrant, and water-insoluble polymer can be selected to optimize the physical integrity of the dosage forms of the present invention (i.e., to minimize the friability of the dosage forms of the present invention). Not being bound by any particular theory, the durability, robustness, and/or friability of the compressed dosage forms of the present invention can be estimated using the compaction index of the excipients used to prepare the dosage forms. As used herein, “compaction index” refers to the force in kiloponds (kp) required to fracture a solid mass prepared by compaction of 500 mg of powder under 1000 lbs pressure using a 16/32″ die and flat face punches. To obtain dosage forms having both low friability and low hardness, a mixture used to prepare the dosage forms can have a compaction index of at least about 5 kp/500 mg/1000 lbs. Not being bound by any particular theory, the compaction index can be used as an indicator of particle interactions in a compressed solid dosage form. For example, the compression of a dry mixture usually has a significant effect on the inter-particle interactions within the mixture, and can involve combinations of • (i) closer contact between particles and the exclusion of air; • (ii) alignment and interlocking of particles; • (iii) the development of stresses and shearing forces that result in fracture and the generation of smaller particles; • (iv) elastic and plastic deformations of particles that can change particle shape; and • (v) chemical bonding between adjacent particles, especially during long-term storage.
Depending on the properties of the excipients comprising the mixture, powdered mixtures can undergo elastic, plastic, or visco-elastic deformation, or brittle fracture, when placed under compressive force. After compression, a compressed dosage form tends to undergo elastic recovery, visco-elastic recovery or brittle fracture. […]

[2] = Particle size and particle size distribution of ingredients; assay type: physicochemical; details: for D50: median particle size of ingredient used for Dosage Form A; for D10 / D90: particle size distribution of ingredient used for Dosage Form A; for VMD: volume mean diameter D[4,3] of ingredient used for Dosage Form A
Description: As used herein, the term “particle size” refers to particle diameter. Particle size and particle size distribution can be measured using, for example, a Hyac/Royco particle size analyzer, a Malvern particle size analyzer, a Beckman Coulter laser diffraction particle size analyzer, or a Shimadzu laser diffraction particle size analyzer. As used herein, the term “diameter” relates to a volumetric measurement based on an approximate spherical shape of a particle. In addition to encompassing free base clozapine particles of a given size, the present invention is also directed to formulations and solid oral dosage forms wherein the distribution of particle sizes of free base clozapine and the excipients are controlled. As used herein, a “distribution” refers to the number or concentration (i.e., percentage) of particles having a certain size, or range of sizes, within a given lot, batch, or solid oral dosage form of the present invention.
As used herein, “volume mean diameter,” when used in reference to the size of particles for use with the present invention, refers to the value of the volume moment mean as represented by D[4,3]. This value indicates the central point of frequency around which the distribution of surface area or volume rotates.
As used herein, the “median” particle size is synonymous with the “particle size D50,” in microns. For example, for the five particle values listed above, the median diameter, or particle size D50, would be 20 μm.
As used herein, “particle size D90,” refers a mixture wherein about 90% of all measurable particles have a diameter equal to or less than the value D90, in microns, and 10% of the measurable particles have a diameter greater than the value of D90, in microns.
The particle size and particle size distribution of the various excipient used in the particulate mixture of the present invention are listed in Table 2.

Compaction index [1]	D50 [2]	D10 [2]	D90 [2]	VMD [2]	SMILES
10 kp/500 mg/1000 lbs	–	–	–	–	COC(=O)[C@H](Cc1ccccc1)NC(=O)[C@@H](N)CC(=O)O [Aspartame] (H-Asp-Phe-OMe)
–	19 μm	5 μm	51 μm	25 μm	CN1CCN(C2=Nc3cc(Cl)ccc3Nc3ccccc32)CC1 [Free base clozapine, 8-chloro-11-(4-methyl-1-piperazinyl)-5H-dibenzo[b,e][1,4]diazepine, reference compound]
9 kp/500 mg/1000 lbs	221 μm	81 μm	507 μm	263 μm	OC[C@@H](O)[C@@H](O)[C@H](O)[C@H](O)CO [Mannitol]
0.7 kp/500 mg/1000 lbs	167 μm	86 μm	310 μm	184 μm	OC[C@@H](O)[C@H](O)[C@@H](O)CO [Xylitol]
